# Measured values as given in patent US20260356830A1, “COMPOUNDS FOR MODULATING RET PROTEIN” (Bristol-Myers Squibb Company, priority 2022, published 2026).
# Target: T1, CCDC6-RET (Homo sapiens, UniProt P07949+Q16204+Q96SW2)
# T1 construct: CCDC6 (natural N-terminal fusion partner, UniProt Q16204); endogenous in cells; host or cells: TPC-1 (parental, papillary thyroid carcinoma)
# Test: Cellular RET degradation, AlphaLISA, TPC-1 cell line
# Format: cell-based
# Conditions: for Dmax: TPC1, human, 24 h, read-out: Cell Density TPC-1/CCDC6-RET Ymax %; for DC50: read-out: Cell Density TPC-1/CCDC6-RET DC50, half-maximal degradation concentration, TPC-1 (CCDC6-RET), 24 hrs
# Summary of the method: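 Luminescent AlphaLISA read of RET abundance in lysates after 24 h compound exposure (37 °C, 2% FBS DMEM) of CCDC6-RET-bearing TPC-1 cells. % degradation relative to DMSO (high) and media (low) controls, fitted to 4-parameter logistic curve for DC50 and Ymax.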
# T1 sequence (Q16204+P07949 fused): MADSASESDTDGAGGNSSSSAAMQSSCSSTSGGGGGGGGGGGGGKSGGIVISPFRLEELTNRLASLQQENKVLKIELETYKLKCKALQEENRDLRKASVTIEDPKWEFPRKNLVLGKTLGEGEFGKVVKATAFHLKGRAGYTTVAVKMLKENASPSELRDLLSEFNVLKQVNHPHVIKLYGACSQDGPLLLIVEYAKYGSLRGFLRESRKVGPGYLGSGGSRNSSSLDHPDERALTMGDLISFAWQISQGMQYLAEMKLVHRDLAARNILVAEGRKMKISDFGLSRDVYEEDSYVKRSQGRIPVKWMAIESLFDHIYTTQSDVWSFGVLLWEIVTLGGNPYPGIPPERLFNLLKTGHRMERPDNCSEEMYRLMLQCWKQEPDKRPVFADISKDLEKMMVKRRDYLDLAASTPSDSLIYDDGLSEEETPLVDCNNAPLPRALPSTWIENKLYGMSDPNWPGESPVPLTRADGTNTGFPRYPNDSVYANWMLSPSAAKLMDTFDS
# T1 sequence (Q96SW2 whole entry, the tested form may be a part): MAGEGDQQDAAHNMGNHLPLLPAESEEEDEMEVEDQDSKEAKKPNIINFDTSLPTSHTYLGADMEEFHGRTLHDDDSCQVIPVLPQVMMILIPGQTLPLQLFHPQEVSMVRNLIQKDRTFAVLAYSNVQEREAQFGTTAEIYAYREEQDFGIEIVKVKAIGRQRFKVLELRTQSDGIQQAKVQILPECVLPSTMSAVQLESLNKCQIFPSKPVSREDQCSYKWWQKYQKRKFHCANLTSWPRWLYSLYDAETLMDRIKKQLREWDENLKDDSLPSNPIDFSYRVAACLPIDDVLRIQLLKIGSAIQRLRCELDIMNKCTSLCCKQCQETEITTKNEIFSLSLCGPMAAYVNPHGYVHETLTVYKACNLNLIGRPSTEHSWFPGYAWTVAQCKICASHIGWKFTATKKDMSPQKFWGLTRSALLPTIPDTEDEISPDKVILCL
# T1 sequence (Q16531 whole entry partner, the tested form may be a part): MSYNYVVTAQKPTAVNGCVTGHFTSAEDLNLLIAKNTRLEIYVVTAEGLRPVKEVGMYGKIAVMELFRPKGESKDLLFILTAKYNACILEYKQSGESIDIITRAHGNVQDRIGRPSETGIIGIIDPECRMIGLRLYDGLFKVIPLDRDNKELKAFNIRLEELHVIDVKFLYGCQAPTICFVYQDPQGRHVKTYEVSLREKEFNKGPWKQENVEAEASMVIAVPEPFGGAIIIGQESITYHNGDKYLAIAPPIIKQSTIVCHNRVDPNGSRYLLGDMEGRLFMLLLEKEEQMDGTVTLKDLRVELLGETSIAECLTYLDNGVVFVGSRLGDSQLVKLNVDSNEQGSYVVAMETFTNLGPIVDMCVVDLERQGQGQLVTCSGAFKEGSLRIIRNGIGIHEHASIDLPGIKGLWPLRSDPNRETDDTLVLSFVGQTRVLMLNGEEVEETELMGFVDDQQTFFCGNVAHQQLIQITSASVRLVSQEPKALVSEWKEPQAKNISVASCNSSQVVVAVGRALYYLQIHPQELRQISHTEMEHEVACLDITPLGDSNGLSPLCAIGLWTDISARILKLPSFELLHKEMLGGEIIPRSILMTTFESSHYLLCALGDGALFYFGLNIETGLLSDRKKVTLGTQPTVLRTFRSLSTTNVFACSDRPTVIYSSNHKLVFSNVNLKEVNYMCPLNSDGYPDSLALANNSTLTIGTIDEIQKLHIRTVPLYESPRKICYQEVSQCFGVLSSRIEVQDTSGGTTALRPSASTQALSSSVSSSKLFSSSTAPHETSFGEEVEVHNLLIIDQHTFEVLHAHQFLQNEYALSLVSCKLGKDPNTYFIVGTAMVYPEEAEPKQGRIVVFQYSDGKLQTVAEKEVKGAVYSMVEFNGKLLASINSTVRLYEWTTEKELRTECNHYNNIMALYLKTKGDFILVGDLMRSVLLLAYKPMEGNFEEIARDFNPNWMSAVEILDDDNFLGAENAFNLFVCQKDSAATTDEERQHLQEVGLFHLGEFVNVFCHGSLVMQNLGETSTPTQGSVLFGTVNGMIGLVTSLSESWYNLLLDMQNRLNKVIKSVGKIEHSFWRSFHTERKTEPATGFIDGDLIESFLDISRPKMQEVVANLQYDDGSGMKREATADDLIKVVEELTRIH
Dmax,DC50,Compound
> 90%,2 to 10 nM,"CCOc1cc(-c2ccc(N3CCC(Cc4ccccc4)(NC(=O)C4CCN(C(=O)CCN5CCC(c6ccc7c(c6)C(=O)N(C6CCC(=O)NC6=O)C7)CC5)CC4)CC3)nc2)c2c(C#N)cnn2c1 (stereo not shown) [Example 52, N-[4-benzyl-1-[5-(3-cyano-6-ethoxy-pyrazolo[1,5-a]pyridin-4-yl)-2-pyridyl]-4-piperidyl]-1-[3-[4-[2-(2,6-dioxo-3-piperidyl)-3-oxo-isoindolin-5-yl]-1-piperidyl]propanoyl]piperidine-4-carboxamide]"
60 to 90%,10 to 100 nM,"CCOc1cc(-c2ccc(N3CCC(Cc4ccccc4)(NC(=O)CN4CCN(C(=O)CCN5CCC(c6ccc7c(c6)C(=O)N(C6CCC(=O)NC6=O)C7)CC5)CC4)CC3)nc2)c2c(C#N)cnn2c1 (stereo not shown) [Example 53, N-[4-benzyl-1-[5-(3-cyano-6-ethoxy-pyrazolo[1,5-a]pyridin-4-yl)-2-pyridyl]-4-piperidyl]-2-[4-[3-[4-[2-(2,6-dioxo-3-piperidyl)-3-oxo-isoindolin-5-yl]-1-piperidyl]propanoyl]piperazin-1-yl]acetamide]"
60 to 90%,100 to 2000 nM,"CCOc1cc(-c2ccc(N3CCC(Cc4ccccc4)(NC(=O)CC4CCN(C(=O)CCN5CCC(c6ccc7c(c6)C(=O)N(C6CCC(=O)NC6=O)C7)CC5)CC4)CC3)nc2)c2c(C#N)cnn2c1 (stereo not shown) [Example 54, N-[4-benzyl-1-[5-(3-cyano-6-ethoxy-pyrazolo[1,5-a]pyridin-4-yl)-2-pyridyl]-4-piperidyl]-2-[1-[3-[4-[2-(2,6-dioxo-3-piperidyl)-3-oxo-isoindolin-5-yl]-1-piperidyl]propanoyl]-4-piperidyl]acetamide]"
60 to 90%,2 to 10 nM,CCOc1cc(-c2ccc(N3CCC(Cc4ccccc4)(NC(=O)N4CCC(CN5CCC(c6ccc7c(c6)C(=O)N(C6CCC(=O)NC6=O)C7)CC5)CC4)CC3)nc2)c2c(C#N)cnn2c1 (stereo not shown) [Example 55]
60 to 90%,2 to 10 nM,"CCOc1cc(-c2ccc(N3CCC(Cc4ccccc4)(NC(=O)N4CCC(N5CCC(c6ccc7c(c6)C(=O)N(C6CCC(=O)NC6=O)C7)CC5)CC4)CC3)nc2)c2c(C#N)cnn2c1 (stereo not shown) [Example 56, N-[4-benzyl-1-[5-(3-cyano-6-ethoxy-pyrazolo[1,5-a]pyridin-4-yl)-2-pyridyl]-4-piperidyl]-4-[4-[2-(2,6-dioxo-3-piperidyl)-3-oxo-isoindolin-5-yl]-1-piperidyl]piperidine-1-carboxamide]"
60 to 90%,100 to 2000 nM,"CCOc1cc(-c2ccc(N3CCC(Cc4ccccc4)(NC(=O)CN4CCC(CN5CCC(c6ccc7c(c6)C(=O)N(C6CCC(=O)NC6=O)C7)CC5)CC4)CC3)nc2)c2c(C#N)cnn2c1 (stereo not shown) [Example 57, N-[4-benzyl-1-[5-(3-cyano-6-ethoxy-pyrazolo[1,5-a]pyridin-4-yl)-2-pyridyl]-4-piperidyl]-2-[4-[[4-[2-(2,6-dioxo-3-piperidyl)-3-oxo-isoindolin-5-yl]-1-piperidyl]methyl]-1-piperidyl]acetamide]"
60 to 90%,2 to 10 nM,"CCOc1cc(-c2ccc(N3CCC(CN4CCN(C5CN(C(=O)Cc6ccc7c(c6)CN(C6CCC(=O)NC6=O)C7=O)C5)CC4)(NC(=O)c4cc(F)ccc4F)CC3)nc2)c2c(C#N)cnn2c1 (stereo not shown) [Example 62, N-[1-(5-{3-cyano-6-ethoxypyrazolo[1,5-a]pyridin-4-yl}pyridin-2-yl)-4-{[4-(1-{2-[2-(2,6-dioxopiperidin-3-yl)-1-oxo-2,3-dihydro-1H-isoindol-5-yl]acetyl}azetidin-3-yl)piperazin-1-yl]methyl}piperidin-4-yl]-2,5-difluorobenzamide]"
60 to 90%,2 to 10 nM,"CCOc1cc(-c2ccc(N3CCC(CN4CCN(C5CN(C(=O)c6ccc7c(c6)CN(C6CCC(=O)NC6=O)C7=O)C5)CC4)(NC(=O)c4cc(F)ccc4F)CC3)nc2)c2c(C#N)cnn2c1 (stereo not shown) [Example 63, N-[1-(5-{3-cyano-6-ethoxypyrazolo[1,5-a]pyridin-4-yl}pyridin-2-yl)-4-[(4-{1-[2-(2,6-dioxopiperidin-3-yl)-1-oxo-2,3-dihydro-1H-isoindole-5-carbonyl]azetidin-3-yl}piperazin-1-yl)methyl]piperidin-4-yl]-2,5-difluorobenzamide]"
> 90%,< 2 nM,"CCOc1cc(-c2ccc(N3CCC(CN4CCN(C5CN(C(=O)c6ccc7c(N8CCC(=O)NC8=O)nn(C)c7c6)C5)CC4)(NC(=O)c4cc(F)ccc4F)CC3)nc2)c2c(C#N)cnn2c1 [Example 64, N-[1-(5-{3-cyano-6-ethoxypyrazolo[1,5-a]pyridin-4-yl}pyridin-2-yl)-4-[(4-{1-[3-(2,4-dioxo-1,3-diazinan-1-yl)-1-methyl-1H-indazole-6-carbonyl]azetidin-3-yl}piperazin-1-yl)methyl]piperidin-4-yl]-2,5-difluorobenzamide]"
60 to 90%,2 to 10 nM,"CCOc1cc(-c2ccc(N3CCC(CN4CCN(C5CN(C(=O)COc6ccc7c(c6)CN(C6CCC(=O)NC6=O)C7=O)C5)CC4)(NC(=O)c4cc(F)ccc4F)CC3)nc2)c2c(C#N)cnn2c1 (stereo not shown) [Example 65, N-[1-(5-{3-cyano-6-ethoxypyrazolo[1,5-a]pyridin-4-yl}pyridin-2-yl)-4-({4-[1-(2-{[2-(2,6-dioxopiperidin-3-yl)-1-oxo-2,3-dihydro-1H-isoindol-5-yl]oxy}acetyl)azetidin-3-yl]piperazin-1-yl}methyl)piperidin-4-yl]-2,5-difluorobenzamide]"
60 to 90%,< 2 nM,"CCOc1cc(-c2ccc(N3CCC(Cc4ccccc4)(NC(=O)C4CCN(C(=O)CCN5CCC(c6ccc7c(c6)CN(C6CCC(=O)NC6=O)C7=O)CC5)CC4)CC3)nc2)c2c(C#N)cnn2c1 (stereo not shown) [Example 66, N-[4-benzyl-1-(5-{3-cyano-6-ethoxypyrazolo[1,5-a]pyridin-4-yl}pyridin-2-yl)piperidin-4-yl]-1-(3-{4-[2-(2,6-dioxopiperidin-3-yl)-1-oxo-2,3-dihydro-1H-isoindol-5-yl]piperidin-1-yl}propanoyl)piperidine-4-carboxamide]"
> 90%,< 2 nM,"CCOc1cc(-c2ccc(N3CCC(CN4CCC(CN5CCN(c6ccc7c(c6)CN(C6CCC(=O)NC6=O)C7=O)CC5)CC4)(NC(=O)c4cc(F)ccc4F)CC3)nc2)c2c(C#N)cnn2c1 (stereo not shown) [Example 69, N-(1-(5-(3-cyano-6-ethoxypyrazolo[1,5-a]pyridin-4-yl)pyridin-2-yl)-4-((4-((4-(2-(2,6-dioxopiperidin-3-yl)-1-oxoisoindolin-5-yl)piperazin-1-yl)methyl)piperidin-1-yl)methyl)piperidin-4-yl)-2,5-difluorobenzamide]"
> 90%,< 2 nM,"CCOc1cc(-c2ccc(N3CCC(CN4CCC(N5CC(N6CCC(c7ccc8c(c7)C(=O)N(C7CCC(=O)NC7=O)C8)CC6)C5)CC4)(NC(=O)c4cc(F)ccc4F)CC3)nc2)c2c(C#N)cnn2c1 (stereo not shown) [Example 71, N-(1-(5-(3-cyano-6-ethoxypyrazolo[1,5-a]pyridin-4-yl)pyridin-2-yl)-4-((4-(3-(4-(2-(2,6-dioxopiperidin-3-yl)-3-oxoisoindolin-5-yl)piperidin-1-yl)azetidin-1-yl)piperidin-1-yl)methyl)piperidin-4-yl)-2,5-difluorobenzamide]"
60 to 90%,10 to 100 nM,"CCOc1cc(-c2ccc(N3CCC(CN4CCN(C(=O)CCN5CCC(c6ccc7c(c6)C(=O)N(C6CCC(=O)NC6=O)C7)CC5)CC4)(C(=O)NC(C)C)CC3)nc2)c2c(C#N)cnn2c1 (stereo not shown) [Example 76, 1-(5-(3-cyano-6-ethoxypyrazolo[1,5-a]pyridin-4-yl)pyridin-2-yl)-4-((4-(3-(4-(2-(2,6-dioxopiperidin-3-yl)-3-oxoisoindolin-5-yl)piperidin-1-yl)propanoyl)piperazin-1-yl)methyl)-N-isopropylpiperidine-4-carboxamide]"
60 to 90%,< 2 nM,"CCOc1cc(-c2ccc(N3CCC(CN4CCN(C(=O)CCN5CCN(c6ccc7c(c6)CN(C6CCC(=O)NC6=O)C7=O)CC5)CC4)(C(=O)NC(C)C)CC3)nc2)c2c(C#N)cnn2c1 (stereo not shown) [Example 77, 1-(5-(3-Cyano-6-ethoxypyrazolo[1,5-a]pyridin-4-yl)pyridin-2-yl)-4-((4-(3-(4-(2-(2,6-dioxopiperidin-3-yl)-1-oxoisoindolin-5-yl)piperazin-1-yl)propanoyl)piperazin-1-yl)methyl)-N-isopropylpiperidine-4-carboxamide]"
> 90%,< 2 nM,"CCOc1cc(-c2ccc(N3CCC(CN4CCN(C(=O)C5CC6(CC(C(=O)Nc7ccc8c(N9CCC(=O)NC9=O)nn(C)c8c7)C6)C5)CC4)(NC(=O)c4cc(F)ccc4F)CC3)nc2)c2c(C#N)cnn2c1 (stereo not shown) [Example 84, 6-(4-{[1-(5-{3-cyano-6-ethoxypyrazolo[1,5-a]pyridin-4-yl}pyridin-2-yl)-4-(2,5-difluorobenzamido)piperidin-4-yl]methyl}piperazine-1-carbonyl)-N-[3-(2,4-dioxo-1,3-diazinan-1-yl)-1-methyl-1H-indazol-6-yl]spiro[3.3]heptane-2-carboxamide]"
60 to 90%,< 2 nM,"CCOc1cc(-c2ccc(N3CCC(CN4CCN(C(=O)C5CC6(C5)CC(C(=O)N5CCN(c7ccc8c(c7)CN(C7CCC(=O)NC7=O)C8=O)CC5)C6)CC4)(NC(=O)c4cc(F)ccc4F)CC3)nc2)c2c(C#N)cnn2c1 (stereo not shown) [Example 85, N-[1-(5-{3-cyano-6-ethoxypyrazolo[1,5-a]pyridin-4-yl}pyridin-2-yl)-4-{[4-(6-{4-[2-(2,6-dioxopiperidin-3-yl)-1-oxo-2,3-dihydro-1H-isoindol-5-yl]piperazine-1-carbonyl}spiro[3.3]heptane-2-carbonyl)piperazin-1-yl]methyl}piperidin-4-yl]-2,5-difluorobenzamide]"
